Read-outs that look alike come from different tables or passages of the source.
Assays:
[1] = system: atherosclerosis inducing diet (cholesterol, cholic acid, vitamine D2); test: Atherosclerosis inducing diet: biochemical exams; assay type: in vivo, Wistar female rats; parameters: CHOLESTEROL T, % reduction with respect to the control diet / CHOLESTEROL HDL, % with respect to the control diet / CHOLESTEROL LDL, % reduction with respect to the control diet / TRIGLYCERIDES, % reduction with respect to the control diet: concentration or dose not given beside the values; details: for TRIGLYCERIDES, % reduction with respect to the control diet / CHOLESTEROL HDL, % with respect to the control diet / CHOLESTEROL LDL, % reduction with respect to the control diet / CHOLESTEROL T, % reduction with respect to the control diet: 4 weeks administration; for CHOLESTEROL HDL, Score with respect to clofibrate / CHOLESTEROL LDL, Score with respect to clofibrate / CHOLESTEROL T, Score with respect to clofibrate / TRIGLYCERIDES, Score with respect to clofibrate: clofibrate counted as 1; for CHOLESTEROL T, % reduction with respect to the control diet: total cholesterol
Procedure: (§1) In a second experimental series, tha activity of certain products according to the invention were tested on animals which had received an atherosclerosis inducing diet for a long period.
(§2) The test was carried out on Wistar female rats, of weight about 160-180 g.
(§3) The animals received food coming from the National Nutrition plant of Villemoisson-sur-Orge, France, and denoted by the reference UAR AO3, enriched in cholesterol (0.5%) and in cholic acid (0.5%).
(§4) After 15 days of the atherosclerosis inducing diet and whilst maintaining the animals on an atherosclerosis inducing diet, they were given orally for 4 days 250.000 iu/kg of vitamine D2 marketed under the name Sterogyl 25H, in solution in olive oil.
(§5) Then the products under study were administered for 4 weeks, from the end of the administration of the lesion-inducing agent.
At the end of the study, biochemical examinations were carried out on all the animals [total cholesterol, high density lipoprotein (HDL) and cholesterol low density lipoprotein (LDL), and triglycerides].
(§6) Then the pecentage reduction with respect to the diet controls and the score were calculated, that is to say the ratio of the intensity of the activity of the product tested with respect to that of the activity of clofibrate, reckoned as 1.
Table IX gives the detailed results of the biochemical examination:
(a) in % reduction with respect to the control die;
(b) as score, with respect to the reference product, clofibrate, the latter being counted as 1.

aorta = test: Atherosclerosis inducing diet: microscopic observations (aorta, histology); assay type: in vivo, Wistar female rats; parameters: HISTOLOGICAL QUOTATION, percentage reduction with respect to the diet controls / NUMBER OF ATHEROSCLEROTIC AREAS, percentage reduction with respect to the diet controls: concentration or dose not given beside the values; details: for NUMBER OF ATHEROSCLEROTIC AREAS: TEM-diet 160; for HISTOLOGICAL QUOTATION, score with respect to clofibrate / NUMBER OF ATHEROSCLEROTIC AREAS, score with respect to clofibrate: clofibrate counted as 1; for HISTOLOGICAL QUOTATION, percentage reduction with respect to the diet controls / HISTOLOGICAL QUOTATION: severity of the lesions; for HISTOLOGICAL QUOTATION: TEM-diet 132
Procedure: as §1, §2, §3, §4, §5
(§7) At the end of the study, all the animals still alive were sacrificed, and various organs were removed, particularly the aorta, for histological study of the latter. Two criteria were examined: the number of atherosclerosis areas and the severity of the lesions.
Calculation of the figures was carried out in the following manner:
as regards the severity of the lesions, a quotation ranging from 0 for absence of a lesion to 5+ for the severest lesions was made, and this for each type of alteration concerned (increase of interlamellar spaces, interruption of elastic laminae, thickening of the elastic laminae, calcium deposition, mucopolysaccharide deposition); then all of the results per batch of animals were added;
as regards the number of atherosclerosis areas, by counting the latter and adding all the figures obtained per batch of animals.
as §6
Table XI gives the microscopic results with histological quotation as regards the severity of the lesions, and the number of atherosclerotic areas.

atherosclerosis lesions = test: Atherosclerosis inducing diet: macroscopic exams (affected animals); assay type: in vivo, Wistar female rats; details: for Score with respect to the reference clofibrate (animals afflicted with lesions): clofibrate counted as 1; for AFFECTED ANIMALS %: macroscopic exams, TEM-diet 100
Procedure: as §1, §2, §3, §4, §5, §7, §6
Table X gives the results of macroscopic examinations:
(a) in % decrease in animals afflicted with lesions;
(b) as score with respect to the reference clofibrate, of which the score was counted as 1.

[2] = system: hyperlipidemia caused by the administration of TRITON; test: Triton test: lipid regulating activity in hyperlipidemia caused by TRITON W. R.; assay type: in vivo, WISTAR male rats; details: Rattus norvegicus, po, 250 mg/kg orally, 6 hours and/or 24 hours
Procedure: In a first series of experiments, products were tested on a hyperlipidemia caused by the administration of TRITON according to the following procedure.
The tests were carried out on groups of five WISTAR male rats whose weight varied from 150 to 175 g.
The tested products were administered, orally in the form of a 3% aqueous solution of tragacanth gum in the ratio of 1 ml per 100 g of body weight, in an amount corresponding to 250 mg/kg.
To carry out these tests, a hyperlipidemia was caused in the animals, by means of the product marketed by the ROHM and HAAS Company under the name TRITON W. R.
On this hyperlipidemia the effects obtained by the administration of the active substances according to the invention, are observed.
The tests were carried out as follows:
the rats were fasted for 18 hours, then the TRITON W. R. was administered intravenously in 10% aqueous solution in the proportion of 200 mg/kg;
simultaneously 250 mg/kg of the product under test was administered orally;
6 hours and/or 24 hours later, blood assays were carried out conventionally.
to the total cholesterol, […]

[3] = Toxicity, general statements; details: Compound No. 1 038: rats and mice, oral route; medicaments: general
[4] = Subacute toxicity of compound No. 1 038; assay type: in vivo; details: about one month; 150,500 and 1 000 mg/kg
mice = test: Toxicity of Compound No. 1 038, oral route, mice; assay type: in vivo
Description: (§8) For Compound No. 1 038, the study of the toxicity has been carried out on rats and on mice to which the product has been administered by the oral route.
(§9) The results (expressed in g/kg) relative to LD50, LD0, and LD100 are gathered in the following table.

[5] = Toxicity of Compound No. 1 038, oral route, mice; assay type: in vivo; details: mouse, in vivo, po
Description: as §8, §9

rats = test: Toxicity of Compound No. 1 038, oral route, rats; assay type: in vivo
Description: as §8, §9

[6] = Toxicity of Compound No. 1 038, oral route, rats; assay type: in vivo; details: rat, in vivo, po
Description: as §8, §9

[7] = Acute toxicity, intraperitoneal, mice; details: mouse, in vivo, ip, intraperitoneally, read-out: lethal dose 50
Procedure: The acute toxicity is expressed by the lethal dose 50, that is to say the dose resulting in the death of 50% of the animals.
This study was carried out on mice, to which the products under test were administered intraperitoneally.
It was established as follows, for the following substances: […]

[8] = read-out: Total cholesterol, % of decrease with respect to Triton control
[9] = read-out: Total lipids, % of decrease with respect to Triton control
[10] = read-out: Triglycerides, % of decrease with respect to Triton control

Compound | TRIGLYCERIDES, % reduction with respect to the control diet [1] | CHOLESTEROL HDL, % with respect to the control diet [1] | CHOLESTEROL LDL, % reduction with respect to the control diet [1] | CHOLESTEROL HDL, Score with respect to clofibrate [1] | CHOLESTEROL LDL, Score with respect to clofibrate [1] | CHOLESTEROL T, Score with respect to clofibrate [1] | TRIGLYCERIDES, Score with respect to clofibrate [1] | CHOLESTEROL T, % reduction with respect to the control diet [1] | NUMBER OF ATHEROSCLEROTIC AREAS, percentage reduction with respect to the diet controls (aorta) | NUMBER OF ATHEROSCLEROTIC AREAS (aorta) | HISTOLOGICAL QUOTATION, score with respect to clofibrate (aorta) | NUMBER OF ATHEROSCLEROTIC AREAS, score with respect to clofibrate (aorta) | HISTOLOGICAL QUOTATION, percentage reduction with respect to the diet controls (aorta) | % decrease in animals afflicted with lesions (atherosclerosis lesions) | Score with respect to the reference clofibrate (animals afflicted with lesions) (atherosclerosis lesions) | AFFECTED ANIMALS % (atherosclerosis lesions) | change in vivo at 250 mg/kg [2, 8] | change in vivo at 250 mg/kg [2, 9] | change in vivo at 250 mg/kg [2, 10] | LD50 [7] | other results
CCOC(=O)CCCNS(=O)(=O)c1cccc([N+](=O)[O-])c1 [compound 679] | 0% | +58,33% | -60,14% | 0,56 | 1,09 | 1,09 | 0 | -53,13% | 48,57% | 82% | 0,64 | 0,88 | 39,97% | 7,14% | 0,39 | 92,86% | -30% | -61% | -34% |  | HISTOLOGICAL QUOTATION (aorta): 79%
O=C(O)CCCNS(=O)(=O)c1cccc(C(F)(F)F)c1 [Compound No. 1038, (trifluoromethyl-3 benzenesulfonylamino)-4 butyric acid] | -20,69% | +83,33% | -58,26% | 0,80 | 1,05 | 1,06 | 0,86 | -51,88% | 78,18% | 35% | 1,06 | 1,42 | 66,31% | 33,33% | 1,83 | 66,67% |  |  |  |  | HISTOLOGICAL QUOTATION (aorta): 44%; toxicity (in words) [3]: presents no toxicity; therapeutic index [4]: very satisfactory; LD0 (mice; female): 5000 mg/kg; LD100 (mice; female): 9000 mg/kg; LD0 (mice; male): 4000 mg/kg; LD100 (mice; male): 9000 mg/kg; LD50 ([5]; female): 6600 mg/kg; LD50 ([5]; male): 6000 mg/kg; LD0 (rats; female): 5000 mg/kg; LD100 (rats; female): > 20000 mg/kg; LD0 (rats; male): 5000 mg/kg; LD100 (rats; male): 20000 mg/kg; LD50 ([6]; female): 15500 mg/kg; LD50 ([6]; male): 13000 mg/kg
O=C(O)CCCNS(=O)(=O)c1cccnc1 [compound 786] | -17,24% | -20,83% | -57,07% |  | 1,03 | 1,11 | 0,71 | -54,22% |  |  |  |  |  | 6,67% | 0,37 | 93,33% | -36% | -24% | -17% |  | 
O=C(O)CCCCCNS(=O)(=O)c1cccc([N+](=O)[O-])c1 [compound 675] |  |  |  |  |  |  |  |  |  |  |  |  |  |  |  |  | -19% | -45% | -27% | 930 mg/kg | 
CCOC(=O)CCCCCCCCCCNS(=O)(=O)c1cccc([N+](=O)[O-])c1 [compound 676] |  |  |  |  |  |  |  |  |  |  |  |  |  |  |  |  | -10% | -43% | -24% | > 6400 mg/kg | 
COc1cc([N+](=O)[O-])c(Cl)cc1S(=O)(=O)NCCCC(=O)O [compound 387] |  |  |  |  |  |  |  |  |  |  |  |  |  |  |  |  |  | -39% | -90% | 3070 mg/kg | 
